Laboratory results published in patent US12077483B2, “Modified amine lipids” (Intellia Therapeutics, Inc., priority 2018, dated 2024).
“And” between values parts separate entries of the source, which are not always exact repeats. Equal entries are not always repeated.

What was measured:
[1] = pKa of amine lipid by TNS fluorescence; format: physicochemical; conditions: probe TNS (6-(p-toluidino)-2-naphthalenesulfonic acid sodium salt), unformulated amine lipid in ethanol, sodium phosphate buffers -9.0
Procedure, shortened: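 pKa derived from a sigmoidal fit of normalized TNS fluorescence (321 nm excitation, 448 nm emission) versus pH. Lipid from ethanol stock diluted to about 100 μM final in 0.1 M phosphate buffers, pH 4.5–9.0.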

[2] = LNP average particle size and polydispersity by dynamic light scattering; format: physicochemical
Procedure, shortened: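 LNPs were diluted in PBS to a count rate of about 200-400 kcps and measured by DLS on a Zetasizer. Size is the intensity-weighted Z-average diameter, reported with number-average diameter, and the polydispersity index describes the spread of sizes around the mean.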

[3] = RNA encapsulation efficiency of LNP (Ribogreen fluorescence assay); format: physicochemical; conditions: for % E: Table 13, LNP sgRNA:Cas9 mRNA 1:2 w/w
Procedure, shortened: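 LNP samples diluted in 1× TE with or without 0.2% Triton-X 100 for total or free RNA, stained ~10 min at room temperature in the dark with RiboGreen; fluorescence ex 488/em 525 nm against RNA standard curves. Encapsulation efficiency = (Total RNA−Free RNA)/Total RNA.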

mouse TTR = assay: Serum TTR ELISA in mice after LNP delivery; format: in vivo
Procedure, shortened: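 Mouse TTR in serum was quantified by ELISA (samples diluted e.g. 10,000- and/or 2,500-fold) 6–7 days after dosing CD-1 females with LNP, typically 0.1 mpk. Values are reported relative to vehicle-treated controls (%).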

[4] = LNP with the compound as amine lipid, Expt. 8, composition ratio (mol %) 50/9/38/3 for Cmpnd 49, 50/10/38.5/1.5 for the others
[5] = Table 4, LNP with G00282 sgRNA:Cas9 mRNA 1:1 w/w, N/P 6.0
[6] = Table 3, guide G282, CD-1 female mice, 0.1 mpk i.v., Exp. 1, 8, 9, 10
[7] = Table 3, guide G282, CD-1 female mice, 0.1 mpk i.v., percentage of vehicle control (TSS)
[8] = mouse serum, relative to TSS control of same experiment, dose 0.03 mpk
[9] = mouse serum, relative to TSS control of same experiment, dose 0.1 mpk
[10] = LNP with the compound as amine lipid, Expt. 7, composition ratio (mol %) 50/9/38/3 for Cmpnd 49, 50/10/38.5/1.5 for the others
[11] = LNP with the compound as amine lipid, Expt. 3, composition ratio (mol %) 50/9/38/3 for Cmpnd 49, 50/10/38.5/1.5 for the others
[12] = LNP with the compound as amine lipid, Expt. 5, composition ratio (mol %) 50/10/38.5/1.5
[13] = LNP with the compound as amine lipid, Expt. 9, composition ratio (mol %) 50/9/38/3 for Cmpnd 49, 50/10/38.5/1.5 for the others
[14] = Table 10, LNP with G00534 sgRNA:Cas9 mRNA 1:2 w/w
[15] = Table 13, LNP sgRNA:Cas9 mRNA 1:2 w/w, N/P 6.0
[16] = mouse serum, relative to TSS control of same experiment, dose 0.03 mpk, 0.03 mg/kg
[17] = LNP with the compound as amine lipid, Expt. 2, composition ratio (mol %) 50/9/39.5/3 for Cmpnd 49, 50/9/39.5/1.5 for the others
[18] = LNP with the compound as amine lipid, Expt. 1, composition ratio (mol %) 50/9/38/3 for Cmpnd 49, 50/10/38.5/1.5 for the others
[19] = LNP with the compound as amine lipid, Expt. 6, composition ratio (mol %) 50/9/38/3 for Cmpnd 49, 50/10/38.5/1.5 for the others
[20] = LNP with the compound as amine lipid, Expt. 10, composition ratio (mol %) 50/9/38/3 for Cmpnd 49, 50/10/38.5/1.5 for the others
[21] = Table 6, LNP with G00282 sgRNA:Cas9 mRNA 1:1 w/w
[22] = LNP with the compound as amine lipid, Expt. 4, composition ratio (mol %) 50/9/38/3 for Cmpnd 49, 50/10/38.5/1.5 for the others

pKa [1]	Num Ave Size (nm) [2, 10]	PDI [2, 10]	Z-Ave Size (nm) [2, 10]	Encapsulation (%) [3, 10]	Num Avg Size (nm) [2, 14]	PDI [2, 14]	Z-Avg Size (nm) [2, 14]	Number Average [nm] [2, 15]	PDI [2, 15]	Z-Ave Size (nm) [2, 15]	Encapsulation (%) [3, 14]	% E ([3]; N/P 6.0)	SMILES	Serum TTR (mouse TTR; [6])	Serum TTR % TSS (mouse TTR; [7])	Serum TTR % TSS (mouse TTR; [8])	Serum TTR % TSS (mouse TTR; [9])	Serum TTR % TSS (mouse TTR; [16])	also measured
6.32													CCCCC/C=C\C/C=C\CCCCCCCC(=O)OCC(COC(=O)CCCCCCC/C=C\C/C=C\CCCCC)OC(=O)CCC(CCCCCCCCCCCC)OC(=O)NCC1CCCN1C (stereo not drawn) [Compound 9, 2-((4-((((1-methylpyrrolidin-2-yl)methyl)carbamoyl)oxy)hexadecanoyl)oxy) propane-1,3-diyl (9Z,9′Z,12Z,12′Z)-bis(octadeca-9,12-dienoate)]	339 µg/mL	38% TSS	114.02 % TSS	103.19 % TSS		Num Ave Size (nm) [2, 4]: 48.82 nm; PDI [2, 4]: 0.074; Z-Ave Size (nm) [2, 4]: 64.83 nm; Num Ave Size (nm) [2, 5]: 59.99 nm; PDI [2, 5]: 0.033; Z-Ave Size (nm) [2, 5]: 74.83 nm; Encapsulation (%) [3, 4]: 98%; Encapsulation (%) [3, 5]: 97%
6.5					79.18 nm	0.050	98.55 nm	84.16 nm	0.021	102.8 nm	87%	97%	CCCCC/C=C\C/C=C\CCCCCCCC(=O)OCC(COC(=O)CCCCCCC/C=C\C/C=C\CCCCC)OC(=O)CCC(CCCCCC)OC(=O)NCCN1CCCC1 (racemic) [Compound 50, 2-((4-(((2-(pyrrolidin-1-yl)ethyl)carbamoyl)oxy)decanoyl)oxy)propane-1,3-diyl (9Z,9′Z,12Z,12′Z)-bis(octadeca-9,12-dienoate)]					71.3 % TSS and 45.51 % TSS and 70.1 % TSS	Num Ave Size (nm) [2, 11]: 76.57 nm; PDI [2, 11]: 0.02; Z-Ave Size (nm) [2, 11]: 94.33 nm; Num Ave Size (nm) [2, 12]: 77 nm; PDI [2, 12]: 0.06; Z-Ave Size (nm) [2, 12]: 103.00 nm; Num Ave Size (nm) [2, 13]: 78 nm; PDI [2, 13]: 0.04; Z-Ave Size (nm) [2, 13]: 98 nm; Encapsulation (%) [3, 11]: 98%; Encapsulation (%) [3, 12]: 98%; Encapsulation (%) [3, 13]: 97%
6.36					76.08 nm	0.052	96.43 nm	75.88 nm	0.009	93.01 nm	93%	97%	CCCCC/C=C\C/C=C\CCCCCCCC(=O)OCC(COC(=O)CCCCCCC/C=C\C/C=C\CCCCC)OC(=O)CCC(CCCCCCCC)OC(=O)NCCN(C)CC (stereo not drawn) [Compound 34, 2-((4-(((2-(ethyl(methyl)amino)ethyl)carbamoyl)oxy)dodecanoyl)oxy)propane-1,3-diyl (9Z,9′Z,12Z,12′Z)-bis(octadeca-9,12-dienoate)]					55% TSS and 85.10 % TSS	Num Ave Size (nm) [2, 18]: 76.32 nm; PDI [2, 18]: 0.02; Z-Ave Size (nm) [2, 18]: 93.66 nm; Num Ave Size (nm) [2, 19]: 73 nm; PDI [2, 19]: 0.03; Z-Ave Size (nm) [2, 19]: 89.00 nm; Num Ave Size (nm) [2, 20]: 77 nm; PDI [2, 20]: 0.03; Z-Ave Size (nm) [2, 20]: 95 nm; Num Ave Size (nm) [2, 21]: 71.97 nm; PDI [2, 21]: 0.015; Z-Ave Size (nm) [2, 21]: 86.45 nm; Encapsulation (%) [3, 18]: 98%; Encapsulation (%) [3, 19]: 98%; Encapsulation (%) [3, 20]: 98%; Encapsulation (%) [3, 21]: 98%; Serum TTR (mouse TTR; Table 7, G00282, CD-1 female mice i.v., dose 0.1 mpk): 170 µg/mL; Serum TTR % TSS (mouse TTR; Table 7, G00282, CD-1 female mice i.v., dose 0.1 mpk, percentage of vehicle control): 21% TSS; Serum TTR (mouse TTR; Table 7, G00282, CD-1 female mice i.v., dose 0.3 mpk): 45 µg/mL; Serum TTR % TSS (mouse TTR; Table 7, G00282, CD-1 female mice i.v., dose 0.3 mpk, percentage of vehicle control): 5% TSS

Continued, compound first:

SMILES	pKa [1]	Num Ave Size (nm) [2, 10]	PDI [2, 10]	Z-Ave Size (nm) [2, 10]	Encapsulation (%) [3, 10]	Num Avg Size (nm) [2, 14]	PDI [2, 14]	Z-Avg Size (nm) [2, 14]	Number Average [nm] [2, 15]	PDI [2, 15]	Z-Ave Size (nm) [2, 15]	Encapsulation (%) [3, 14]	% E ([3]; N/P 6.0)	Serum TTR (mouse TTR; [6])	Serum TTR % TSS (mouse TTR; [7])	Serum TTR % TSS (mouse TTR; [8])	Serum TTR % TSS (mouse TTR; [9])	Serum TTR % TSS (mouse TTR; [16])	also measured
CCCCC/C=C\C/C=C\CCCCCCCC(=O)OCC(COC(=O)CCCCCCC/C=C\C/C=C\CCCCC)OC(=O)CCC(CCCCCCCC)OC(=O)OCCCN1CCCC1 (stereo not drawn) [Compound 36, 2-((4-(((3-(pyrrolidin-1-yl)propoxy)carbonyl)oxy)dodecanoyl)oxy)propane-1,3-diyl (9Z,9′Z,12Z,12′Z)-bis(octadeca-9,12-dienoate)]	6.13	58.34 nm	0.058	75.9 nm	98%											75.785 % TSS	43.824 % TSS		
CCCCC/C=C\C/C=C\CCCCCCCC(=O)OCC(COC(=O)CCCCCCC/C=C\C/C=C\CCCCC)OC(=O)CCC(CCCCCC)OC(=O)OCCCN1CCCC1 (stereo not drawn) [Compound 45, 2-((4-(((3-(pyrrolidin-1-yl)propoxy)carbonyl)oxy)decanoyl)oxy)propane-1,3-diyl (9Z,9′Z,12Z,12′Z)-bis(octadeca-9,12-dienoate)]	5.79	77.92 nm	0.012	95.26 nm	98%	83.48 nm	0.052	101.00 nm				95%					10.09 % TSS	78.39 % TSS and 43.435 % TSS	Num Ave Size (nm) [2, 17]: 85.54 nm; PDI [2, 17]: 0.021; Z-Ave Size (nm) [2, 17]: 102.70 nm; Encapsulation (%) [3, 17]: 99%
CCCCC/C=C\C/C=C\CCCCCCCC(=O)OCC(COC(=O)CCCCCCC/C=C\C/C=C\CCCCC)OC(=O)CCC(CCCCCCCCCC)OC(=O)NCCN(C)CC (stereo not drawn) [Compound 39, 2-((4-(((2-(ethyl(methyl)amino)ethyl)carbamoyl)oxy)tetradecanoyl)oxy)propane-1,3-diyl (9Z,9′Z,12Z,12′Z)-bis(octadeca-9,12-dienoate)]	6.32													335 µg/mL	41% TSS	41% TSS	6% TSS		Num Ave Size (nm) [2, 22]: 73.52 nm; PDI [2, 22]: 0.015; Z-Ave Size (nm) [2, 22]: 89.83 nm; Encapsulation (%) [3, 22]: 98%
